Laboratory results published in patent US20120165310A1, “ETHER DERIVATIVES OF BICYCLIC HETEROARYLS” (NOVARTIS AG, priority 2009, published 2012).

target: T1, IGF-1R (Homo sapiens, UniProt P08069); assay: Cellular IGF-1R assay: capture ELISA (MSD) of receptor phosphorylation in Hek293 cells; format: cell-based; details: Hek293-IGF1R cells, 1 h pre-incubation, 10 min IGF stimulation, pIGF1R capture ELISA
T1 construct: expressed in transfected cells; host or cells: Hek293 (Hek293-IGF1R)
Method in brief: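 IC50 from 4-parameter fit of IGF1R phosphorylation, normalised to IGF-stimulated and unstimulated controls, measured by MSD capture ELISA on lysates. Hek293-IGF1R cells in starvation medium got compound 1 h (top 10 μM, 3-fold steps, 0.1% DMSO) before a 10 min pulse of 1.0 ng/μL IGF.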

T1 sequence (P08069 31-1367): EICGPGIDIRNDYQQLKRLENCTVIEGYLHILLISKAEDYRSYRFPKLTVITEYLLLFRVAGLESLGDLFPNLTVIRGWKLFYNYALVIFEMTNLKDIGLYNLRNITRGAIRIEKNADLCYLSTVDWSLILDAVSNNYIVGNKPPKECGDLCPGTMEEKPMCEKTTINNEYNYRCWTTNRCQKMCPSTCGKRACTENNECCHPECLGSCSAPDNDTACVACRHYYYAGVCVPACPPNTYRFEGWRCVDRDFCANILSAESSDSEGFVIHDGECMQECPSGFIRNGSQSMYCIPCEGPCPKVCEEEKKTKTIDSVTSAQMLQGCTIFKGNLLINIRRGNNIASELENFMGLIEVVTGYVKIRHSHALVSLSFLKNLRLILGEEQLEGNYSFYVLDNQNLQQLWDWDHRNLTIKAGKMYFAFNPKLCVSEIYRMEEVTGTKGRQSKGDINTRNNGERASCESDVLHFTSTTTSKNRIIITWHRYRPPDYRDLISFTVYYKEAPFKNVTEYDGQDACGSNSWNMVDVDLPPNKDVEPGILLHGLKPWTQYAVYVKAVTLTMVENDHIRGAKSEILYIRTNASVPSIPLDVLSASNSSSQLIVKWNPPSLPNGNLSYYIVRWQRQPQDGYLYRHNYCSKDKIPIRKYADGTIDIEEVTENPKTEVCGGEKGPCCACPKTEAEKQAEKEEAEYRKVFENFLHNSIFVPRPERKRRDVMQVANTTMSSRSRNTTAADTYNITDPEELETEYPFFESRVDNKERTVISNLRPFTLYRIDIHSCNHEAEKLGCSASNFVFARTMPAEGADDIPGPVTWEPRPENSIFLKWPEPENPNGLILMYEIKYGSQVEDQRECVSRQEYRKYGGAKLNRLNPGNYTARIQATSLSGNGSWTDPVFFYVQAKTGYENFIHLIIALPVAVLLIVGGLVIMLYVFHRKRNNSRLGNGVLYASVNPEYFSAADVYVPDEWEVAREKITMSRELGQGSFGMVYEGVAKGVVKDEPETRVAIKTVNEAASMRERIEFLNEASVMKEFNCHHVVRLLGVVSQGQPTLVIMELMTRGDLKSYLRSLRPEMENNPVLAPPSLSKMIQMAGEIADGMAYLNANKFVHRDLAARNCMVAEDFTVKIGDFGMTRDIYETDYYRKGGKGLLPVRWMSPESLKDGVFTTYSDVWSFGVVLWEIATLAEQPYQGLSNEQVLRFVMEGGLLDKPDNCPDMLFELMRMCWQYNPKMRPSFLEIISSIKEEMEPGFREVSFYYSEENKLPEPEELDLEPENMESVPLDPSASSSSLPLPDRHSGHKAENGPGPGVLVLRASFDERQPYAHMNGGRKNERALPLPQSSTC

Compound	IC50 [nM]
Nc1ncnc2c1c(-c1cccc(OCC34CCC(CC3)O4)c1)cn2C1CC(CN2CCS(=O)(=O)CC2)C1 (stereo not drawn) [Example 24, 7-[3-(1,1-dioxo-1-thiomorpholin-4-ylmethyl)-cyclobutyl]-5-[3-(7-oxa-bicyclo[2.2.1]hept-1-ylmethoxy)-phenyl]-7H-pyrrolo[2,3-d]pyrimidin-4-ylamine]	3.9 to 4
CN1CCN([C@H]2CC[C@@H](n3cc(-c4cccc(OCC56CCC(CC5)O6)c4)c4c(N)ncnc43)CC2)CC1=O [Example 143, 4-((1S,4S)-4-(5-(3-(7-oxabicyclo[2.2.1]heptan-1-ylmethoxy)phenyl)-4-amino-7H-pyrrolo[2,3-d]pyrimidin-7-yl)cyclohexyl)-1-methylpiperazin-2-one]	319 to 534
Nc1ncnc2c1c(-c1cccc(OCC3CCCCO3)c1)cn2[C@H]1C[C@@H](CN2CCC[C@@H]2C(=O)O)C1 (stereo partly drawn) [Example 90, 1-(cis-3-{4-amino-5-[3-(tetrahydro-pyran-2-ylmethoxy)-pheny]-pyrrolo[2,3-d]pyrimidin-7-yl}-cyclobutylmethyl)-pyrrolidine-2-carboxylic acid]	538
Nc1ncnc2c1c(-c1cccc(OCC3CCCCO3)c1)cn2[C@H]1C[C@H](CN2CC(F)C2)C1 (relative stereo) [Example 37, 7-[trans-3-(3-fluoro-azetidin-1-ylmethyl)-cyclobutyl]-5-[3-(tetrahydro-pyran-2-ylmethoxy)-phenyl]-7H-pyrrolo[2,3-d]pyrimidin-4-ylamine]	497
CN(C)[C@H]1CC[C@H](n2cc(-c3cccc(OCC45CCC(CC4)O5)c3)c3c(N)ncnc32)CC1 (relative stereo) [Example 183, 7-(trans-4-Dimethylamino-cyclohexyl)-5-[3-(7-oxa-bicyclo[2.2.1]hept-1-ylmethoxy)-phenyl]-7H-pyrrolo[2,3-d]pyrimidin-4-ylamine]	88
Nc1ncnc2c1c(-c1cccc(OCC34CCC(CC3)O4)c1)cn2[C@H]1CC[C@H](N2CC[C@@H](F)C2)CC1 [Example 125, 5-(3-(7-oxabicyclo[2.2.1]heptan-1-ylmethoxy)phenyl)-7-((1R,4S)-4-((R)-3-fluoropyrrolidin-1-yl)cyclohexyl)-7H-pyrrolo[2,3-d]pyrimidin-4-amine]	419
Nc1ncnc2c1c(-c1cccc(OCC34CCC(CC3)O4)c1)cn2C1CC(O)(CN2CCC(O)C2)C1 (single isomer, unassigned) [Example 203]	501
Nc1ncnc2c1c(-c1cccc(OCC34CCC(CC3)O4)c1)cn2[C@H]1CC[C@@H](NC(=O)C2CCOCC2)CC1 [Example 141, N-((1S,4S)-4-(5-(3-(7-oxabicyclo[2.2.1]heptan-1-ylmethoxy)phenyl)-4-amino-7H-pyrrolo[2,3-d]pyrimidin-7-yl)cyclohexyl)tetrahydro-2H-pyran-4-carboxamide]	21
CC1(C)CCC(COc2cccc(-c3cn([C@H]4C[C@H](CN5CCC[C@@H]5C(N)=O)C4)c4ncnc(N)c34)c2)O1 (stereo partly drawn) [Example 72, (R)-1-(trans-3-{4-amino-5-[3-(5,5-dimethyl-tetrahydro-furan-2-ylmethoxy)-phenyl]pyrrolo[2,3-d]pyrimidin-7-yl}-cyclobutylmethyl)-pyrrolidine-2-carboxylic acid amide]	57
CC1(C)CCC(COc2cccc(-c3cn([C@H]4C[C@H](CN5CC(O)C5)C4)c4ncnc(N)c34)c2)O1 (relative stereo) [Example 48, 1-(trans-3-{4-amino-5-[3-(5,5-dimethyl-tetrahydro-furan-2-ylmethoxy)-phenyl]-pyrrolo[2,3-d]pyrimidin-7-yl}-cyclobutylmethyl)-azetidin-3-ol]	26
CC1(C)CCC(COc2cccc(-c3cn([C@H]4C[C@@H](CN5CCC(F)CC5)C4)c4ncnc(N)c34)c2)O1 (single isomer, unassigned) [Example 59, 7-[cis-3-(4-fluoro-piperidin-1-ylmethyl)-cyclobutyl]-5-[3-(5,5-dimethyl-tetrahydro-furan-2-ylmethoxy)-phenyl]-7H-pyrrolo[2,3-d]pyrimidin-4-ylamine]	18
Nc1ncnc2c1c(-c1cccc(OCC34CCC(CC3)O4)c1)cn2[C@H]1CC[C@@H](Cn2ccnc2)CC1 [Example 148, 7-((1S,4S)-4-((1H-imidazol-1-yl)methyl)cyclohexyl)-5-(3-(7-oxabicyclo[2.2.1]heptan-1-ylmethoxy)phenyl)-7H-pyrrolo[2,3-d]pyrimidin-4-amine]	247
NC(=O)C1C2CCC(C2)N1CC1CC(n2cc(-c3cccc(OCC4CCCCO4)c3)c3c(N)ncnc32)C1 [Example 95, (1R,3R,45)-2-(((1s, 3S)-3-(4-amino-5-(3-((tetrahydro-2H-pyran-2-yl)methoxy)phenyl)-7H-pyrrolo[2,3-d]pyrimidin-7-yl)cyclobutyl)methyl)-2-azabicyclo[2.2.1]heptane-3-carboxamide]	219
CN1CCN(C[C@H]2CC[C@@H](n3cc(-c4cccc(OCC56CCC(CC5)O6)c4)c4c(N)ncnc43)CC2)CC1 [Example 113, 5-(3-(7-oxabicyclo[2.2.1]heptan-1-ylmethoxy)phenyl)-7-((1S,4S)-4-((4-methylpiperazin-1-yl)methyl)cyclohexyl)-7H-pyrrolo[2,3-d]pyrimidin-4-amine]	178

Next, values leading:

IC50 [nM]	Compound
150	Nc1ncnc2c1c(-c1cccc(OCC34CCC(CC3)O4)c1)cn2[C@H]1CC[C@@H](N2CC[C@@H](O)C2)CC1 [Example 128, (R)-1-((1S,4S)-4-(5-(3-(7-oxabicyclo[2.2.1]heptan-1-ylmethoxy)phenyl)-4-amino-7H-pyrrolo[2,3-d]pyrimidin-7-yl)cyclohexyl)pyrrolidin-3-ol]
149	7-[cis-3-(2-hydroxymethyl-imidazol-1-ylmethyl)-cyclobutyl]-53-(7-oxa-bicyclo[2.2.1]hept-1-ylmethoxy)--phenyl]-7H-pyrrolo[2,3-d]pyrimidin-4-ylamine [Example 176]
7 to 15	NC(=O)[C@@H]1CCCN1C[C@H]1C[C@@H](n2cc(-c3cccc(OC[C@@H]4CCCCO4)c3)c3c(N)ncnc32)C1 [Example 44, (S)-1-[3-(4-amino-5-{3-[(S)-1-(tetrahydro-pyran-2-yl)methoxy]-phenyl}-pyrrolo[2,3-d]pyrimidin-7-yl)-cyclobutylmethyl]-pyrrolidine-2-carboxylic acid amide]
598	Cn1nnnc1C[C@]1(O)C[C@H](n2cc(-c3cccc(OCC45CCC(CC4)O5)c3)c3c(N)ncnc32)C1 [Example 217, (E)-3-{4-Amino-5-[3-(7-oxa-bicyclo[2.2.1]hept-1-ylmethoxy)-phenyl]-pyrrolo[2,3-d]pyrimidin-7-yl}-1-(1-methyl-1H-tetrazol-5-ylmethyl)-cyclobutanol]
372	Nc1ncnc2c1c(-c1cccc(OCC3CCCO3)c1)cn2[C@H]1C[C@@H](CN2CCC(F)(F)CC2)C1 (relative stereo) [Example 83, 7-[cis-3-(4,4-difluoro-piperidin-1-ylmethyl)-cyclobutyl]-5-[3-(tetrahydro-furan-2-ylmethoxy)-phenyl]-7H-pyrrolo[2,3-d]pyrimidin-4-ylamine]
106 to 448	Cc1nccn1C[C@H]1C[C@@H](n2cc(-c3cccc(OCC45CCC(C)(CC4)O5)c3)c3c(N)ncnc32)C1 (relative stereo) [Example 157, 7-[cis-3-(2-methyl-imidazol-1-ylmethyl)-cyclobutyl]-5-[3-(4-methyl-7-oxa-bicyclo[2.2.1]hept-1-ylmethoxy)-phenyl]-7H-pyrrolo[2,3-d]pyrimidin-4-ylamine]
388	CC1(C)CCC(COc2cccc(-c3cn(C4CCC(N5CCC[C@H]5C(N)=O)CC4)c4ncnc(N)c34)c2)O1 (stereo partly drawn) [Example 69, (S)-1-(4-{4-amino-5-[3-(5,5-dimethyl-tetrahydro-furan-2-ylmethoxy)-phenyl]-pyrrolo[2,3-d]pyrimidin-7-yl}-cyclohexyl)-pyrrolidine-2-carboxylic acid amide]
518	Nc1ncnc2c1c(-c1cccc(OCC34CCC(CC3)O4)c1)cn2C1CN(C2CS(=O)(=O)C2)C1 [Example 224, 7-[1-(1,1-dioxo-thietan-3-yl)-azetidin-3-yl]-5-[3-(7-oxa-bicyclo[2.2.1]hept-1-ylmethoxy)-phenyl]-7H-pyrrolo[2,3-d]pyrimidin-4-ylamine]
205	NC(=O)[C@@H]1[C@H](O)CCN1C[C@H]1C[C@@H](n2cc(-c3cccc(OCC4CCCO4)c3)c3c(N)ncnc32)C1 (stereo partly drawn) [Example 82, (2S,3R)-1-(cis-3-{4-amino-5-[3-(tetrahydro-furan-2-ylmethoxy)-phenyl]-pyrrolo[2,3-d]pyrimidin-7-yl}-cyclobutylmethyl)-3-hydroxy-pyrrolidine-2-carboxylic acid amide]
99	Nc1ncnc2c1c(-c1cccc(OCC34CCC(CC3)O4)c1)cn2[C@H]1C[C@@]2(COC(=O)O2)C1 [Example 197, (E)-2-{4-Amino-5-[3-(7-oxa-bicyclo[2.2.1]hept-1-ylmethoxy)-phenyl]-pyrrolo[2,3d]pyrimidin-7-yl}-5,7-dioxa-spiro[3.4]octan-6-one]
115 to 194	CN1CCN(C[C@H]2C[C@@H](n3cc(-c4cccc(OCC56CCC(CC5)O6)c4)c4c(N)ncnc43)C2)CC1=O (relative stereo) [Example 210, 4-(cis-3-{4-Amino-5-[3-(7-oxa-bicyclo[2.2.1]hept-1-ylmethoxy)-phenyl]-pyrrolo[2,3-d]pyrimidin-7-yl}-cyclobutylmethyl)-1-methyl-piperazin-2-one]
166	Nc1ncnc2c1c(-c1cccc(OC[C@@H]3CCCO3)c1)cn2[C@H]1C[C@@H](CN2CCS(=O)(=O)CC2)C1 [Example 156, 7-[cis-3-(1,1-Dioxo-1-thiomorpholin-4-ylmethyl)-cyclobutyl]-5-{3-[(S)-1-(tetrahydro-furan-2-yl)methoxy]-phenyl}-7H-pyrrolo[2,3-d]pyrimidin-4-ylamine]
397	Nc1ncnc2c1c(-c1cccc(OCC34CCC(CC3)O4)c1)cn2C1CCN(C2COC2)CC1 [Example 118, 5-(3-(7-oxabicyclo[2.2.1]heptan-1-ylmethoxy)phenyl)-7-(1-(oxetan-3-yl)piperidin-4-yl)-7H-pyrrolo[2,3-d]pyrimidin-4-amine]
